Assay results reported in patent publication US8101389B2, “Bacterial glutamine synthetases and methods of use” (Athenix Corp, priority 2006, dated 2012).

Columns and labels:
[1] = biological target: T1, Serratia marcescens ATX 20345 glutamine synthetase AGS1, wild type, SEQ ID NO:2 (Serratia marcescens, UniProt A0A0F6KS08); assay: enzymatic assay, kinetics of wild-type AGS1; type: biochemical
T1 construct: gene cloned as pAX685; dodecamer from known biology
Source text: ags1m1 (pAX3421) and ags1m2 (pAX3422) were subcloned into E. coli expression vector pRSF1B (Invitrogen) so as to create an N-terminus encoding a 6Xhis tag, purified and characterized kinetically.
ags1m21 (SEQ ID NO:41) encodes the AGS1m21 protein (SEQ ID NO:42). AGS1m21 is a variant of AGS1 that contains a similar amino acid change identified in other variants (V214M), as well as two novel mutations (N160S and G167R). This enzyme was expressed in E. coli, purified, and the kinetic values Km(glutamate) and Ki(glufosinate) of the variant measured by enzymatic assay.
(§1) The unmodified enzyme (AGS1) was compared to AGS1(AD-) and AGS1m17(AD-) by carrying out enzymatic assays on both enzymes following purification from E. coli. A glutamine synthetase enzyme from E. coli (GlnA) was also tested.

[2] = biological target: Serratia marcescens glutamine synthetase AGS1 variant AGS1m17(AD-), F81S, P185S, H212T, V214A, G218S, I303N plus tyrosine 398 to phenylalanine, SEQ ID NO:46 (Serratia marcescens, UniProt A0A0F6KS08, F81S/G218S/H212T/I303N/P185S/V214A/Y398F); assay: enzymatic assay, kinetics of AGS1m17(AD-); type: biochemical
Serratia marcescens glutamine synthetase AGS1 variant AGS1m17(AD-), F81S, P185S, H212T, V214A, G218S, I303N plus tyrosine 398 to phenylalanine, SEQ ID NO:46, sequence (A0A0F6KS08 whole entry F81S/P185S/H212T/V214A/G218S/I303N/Y398F): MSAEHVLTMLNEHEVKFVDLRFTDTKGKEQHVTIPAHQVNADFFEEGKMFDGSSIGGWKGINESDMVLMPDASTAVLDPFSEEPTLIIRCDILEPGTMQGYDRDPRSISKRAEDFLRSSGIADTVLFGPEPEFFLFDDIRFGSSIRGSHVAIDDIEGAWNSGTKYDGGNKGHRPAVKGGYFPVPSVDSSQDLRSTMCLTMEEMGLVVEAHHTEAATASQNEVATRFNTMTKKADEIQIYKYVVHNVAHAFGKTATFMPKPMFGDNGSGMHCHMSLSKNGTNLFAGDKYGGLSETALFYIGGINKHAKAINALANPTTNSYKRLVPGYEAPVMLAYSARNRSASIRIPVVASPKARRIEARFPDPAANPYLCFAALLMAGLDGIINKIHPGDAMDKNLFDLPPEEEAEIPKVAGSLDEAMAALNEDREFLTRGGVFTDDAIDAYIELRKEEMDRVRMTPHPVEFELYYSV
Experimental: ags1m17(ad-) (SEQ ID NO:45) encoding the AGS1m17(AD-) protein (SEQ ID NO:46), is a variant of ags1m17 in which the putative adenylylation site has been removed by mutating the tyrosine at position 398 of AGS1 to a phenylalanine by site directed mutagenesis.
as §1

[3] = test system: E. coli cells with AGS1 variant AGS1m7 (pAX3431), G168C, V214M, K395R, SEQ ID NO:14; assay: growth of E. coli on glufosinate plates, ags1m7; type: cell-based; details: 2, 10, 20, 50, and 100 mM; DH5a; Clone 10
Experimental: Mutants of the bacterial glutamine synthetase gene ags1 (SEQ ID NO:1) were created by error-prone mutagenesis using the GENEMORPH® Random Mutagenesis kit, and also using oligo-directed mutagenesis as known in the art. However, many methods are available for creating libraries of mutants. The resulting mutants were cloned into a pUC19 vector, electroporated into either XL-1 or DH5 alpha E. coli cells, and selected for growth on M63+ agar media containing antibiotic and 2, 10, or 20 mM glufosinate. Twenty-two clones were identified as growing on 20 mM glufosinate, and picked for further analysis.

[4] = test system: E. coli cells with AGS1 variant AGS1m16 (pAX3439), F81S, P185S, H212N, G218S, I303N, SEQ ID NO:32; assay: growth of E. coli on glufosinate plates, ags1m16; type: cell-based
Experimental: ags1m2 was mutagenized by error-prone mutagenesis using GENEMORPH® II Random Mutagenesis kit (Stratagene) according to manufacturer's instructions. Mutagenized PCR product was digested with Sac I and Hind III, and ligated into a pUC vector, similarly digested with Sac I and Hind III. Ligations were transformed into E. coli cells, and plated onto M63+ plates containing antibiotic, and 125 mM glufosinate. Clones growing on 125 mM glufosinate plates were retested on 200 mM glufosinate plates, and compared to similar platings of ags1m1 and ags1m2. […] The DNA sequence of the ags open reading frame in pAX3439 was sequenced, and the gene designated as ags1m16. The DNA sequence of ags1m16 is represented herein as SEQ ID NO:31, and the amino acid sequence is represented herein as SEQ ID NO:32. AGS1m16 differs from AGS1m2 at a single amino acid at position H212 of the protein, which is modified from Histidine (‘H’) to Asparagine (‘N’), and contains a total of five amino acid changes relative to the wild-type AGS1 (see FIG. 1 and Table 3).
Clones expressing AGS1m17, AGS1m18, AGS1m19, or AGS1m20 were all found to be able to grow on plates containing 375 mM glufosinate, whereas no growth of clones expressing AGS1m16 was observed on plates containing 375 mM glufosinate.

[5] = test system: E. coli DH5α cells with TKH2; assay: growth of DH5α with TKH2 on M63 minimal plates with glufosinate; type: cell-based; details: 20 mM glufosinate
Experimental: To obtain the gene(s) responsible for the strain's resistance to glufosinate, a small insert plasmid genomic library was prepared from strain ATX 20345. Genomic DNA was extracted from a fresh, overnight LB culture using SDS, proteinase K cell lysis followed by CTAB/NaCl, phenol-chloroform extractions. Partial digests were performed on the genomic DNA using 0.1 units Sau3A I at 37° C. for 30 minutes followed by the addition of EDTA and incubation at 65° C. for 20 minutes to halt the reaction. Resultant DNA was approximately 4-12 kb in size. The DNA was gel purified, treated with T4 polynucletide kinase, then ligated into BamH I digested pUC18 vector. Ligations were transformed into DH5a and plated directly on M63 minimal media plates containing 20 mM glufosinate, 100 μg/ml carbenicillin, and 0.1 mM IPTG. After several days, 4 colonies had appeared, tentatively named TKH1-4. They were grown up and plasmid DNA was isolated and analyzed by digestion with EcoR I+ Hind III, and Pst I/Sac Ito compare inserts. Though all four clones contained inserts, TKH2 and TKH3 were identical by restriction digest analysis, and both contained inserts of approximately 4.9 kb.
To reconfirm that TKH2 and TKH3 confer resistance to 20 mM glufosinate, the purified plasmids were retransformed into DH5α cells. pUC18 was retransformed as a negative control. […]

[6] = Table 5, Km glutamate, Ki glufosinate

T1 sequence (A0A0F6KS08 entry or part of it): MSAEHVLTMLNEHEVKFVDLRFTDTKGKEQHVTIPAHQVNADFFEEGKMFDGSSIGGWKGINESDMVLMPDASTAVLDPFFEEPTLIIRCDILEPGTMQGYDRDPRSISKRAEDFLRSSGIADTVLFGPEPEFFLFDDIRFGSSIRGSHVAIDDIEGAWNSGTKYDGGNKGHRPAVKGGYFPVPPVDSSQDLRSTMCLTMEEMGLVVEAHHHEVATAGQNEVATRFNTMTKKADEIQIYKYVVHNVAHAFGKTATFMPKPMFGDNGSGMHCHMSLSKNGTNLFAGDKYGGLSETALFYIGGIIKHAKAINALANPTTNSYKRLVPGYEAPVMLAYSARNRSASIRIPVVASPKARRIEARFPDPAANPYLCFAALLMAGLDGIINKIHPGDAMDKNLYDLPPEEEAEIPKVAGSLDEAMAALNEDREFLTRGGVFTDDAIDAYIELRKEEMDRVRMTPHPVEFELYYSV

CP(=O)(O)CCC(N)C(=O)O (stereo not shown) [glufosinate]
Ki [1]: 0.013 mM
inhibition by glufosinate ([1]; 100 uM glufosinate): completely inhibited
(Kcat*Ki)/Km [1, 6]: 0.32
Ki [2]: 23 mM
(Kcat*Ki)/Km [2, 6]: 110.04
growth on glufosinate minimal M63+ agar media [3]: shown to grow
growth on 200 mM glufosinate plates ([4]; 200 mM glufosinate): ability to grow
growth on plates containing 375 mM glufosinate ([4]; 375 mM glufosinate): no growth
glufosinate concentrations up to which cells are able to grow ([4]; cells containing AGS1m16): 200 mM
growth in the presence of glufosinate [5]: grew in the presence of glufosinate
